# Measurements reported in PubChem BioAssay (NCI).
#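 All cell lines were grown in 96-well plates and treated with compound for 48 hours. Definition used: TGI = concentration required for complete inhibition of growth.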
# How the values were obtained:
# Assay in all cases: NCI tumour cell line growth inhibition, 48 h
# [1] = system: CCRF-CEM leukemia
# [2] = system: NCI-H226 lung
# [3] = system: RXF 393 renal
# [4] = system: SK-OV-3 ovarian
# [5] = system: OVCAR-3 ovarian
# [6] = system: IGROV1 ovarian
# [7] = system: DMS 273 small cell lung
# [8] = system: MOLT-4 leukemia
# [9] = system: DLD-1 colon
# [10] = system: HT29 colon
# [11] = system: LOX IMVI melanoma
# [12] = system: KM12 colon
# [13] = system: HCT-15 colon
# [14] = system: SR leukemia
# [15] = system: A498 renal
# [16] = system: SNB-78 CNS
# [17] = system: HOP-62 NSCLC
# [18] = system: NCI-H23 lung
# [19] = system: A549 NSCLC
# [20] = system: SK-MEL-5 melanoma
# [21] = system: KM20L2 colon
# [22] = system: UO-31 renal
# [23] = system: UACC-257 melanoma
# [24] = system: DMS 114 small cell lung
# [25] = system: SF-539 CNS
# [26] = system: ACHN renal
# [27] = system: SK-MEL-2 melanoma
# [28] = system: COLO 205 colon
# [29] = system: M14 melanoma
# [30] = system: SK-MEL-28 melanoma
# [31] = system: UACC-62 melanoma
# [32] = system: HCT-116 colon
# [33] = system: K-562 leukemia
# [34] = system: SNB-75 CNS
# [35] = system: 786-0 renal
# [36] = system: HCC-2998 colon
# [37] = system: HL-60(TB) leukemia
# [38] = system: SW-620 colon
# [39] = system: OVCAR-8 ovarian
# [40] = system: MALME-3M melanoma
# [41] = system: NCI-H522 lung
# [42] = system: SF-268 CNS
# [43] = system: HOP-18 NSCLC
# [44] = system: SNB-19 CNS
# [45] = system: TK-10 renal
# [46] = system: EKVX NSCLC
# [47] = system: SN12C renal
# [48] = system: OVCAR-5 ovarian
# [49] = system: M19-MEL melanoma
# [50] = system: NCI-H460 lung
# [51] = system: LXFL 529 NSCLC
# [52] = system: U251 CNS
# [53] = system: SF-295 CNS
# [54] = system: HOP-92 NSCLC
# [55] = system: RPMI-8226 leukemia
# [56] = system: XF 498 CNS
# [57] = system: OVCAR-4 ovarian
# [58] = system: CAKI-1 renal
smiles,measurement,setting,value
CC1CC2=C(C(=O)O1)C(c1ccccc1)Nc1ccccc1N2 (centres undefined),TGI,[1],> 100 µM
same,TGI,[2],> 100 µM
same,TGI,[3],> 100 µM
same,TGI,[4],> 100 µM
same,TGI,[5],> 100 µM
same,TGI,[6],> 100 µM
same,TGI,[7],> 100 µM
same,TGI,[8],> 100 µM
same,TGI,[9],> 100 µM
same,TGI,[10],> 100 µM
same,TGI,[11],> 100 µM
same,TGI,[12],> 100 µM
same,TGI,[13],> 100 µM
same,TGI,[14],> 100 µM
same,TGI,[15],> 100 µM
same,TGI,[16],> 100 µM
same,TGI,[17],> 100 µM
same,TGI,[18],> 100 µM
same,TGI,[19],> 100 µM
same,TGI,[20],> 100 µM
same,TGI,[21],> 100 µM
same,TGI,[22],> 100 µM
same,TGI,[23],> 100 µM
same,TGI,[24],> 100 µM
same,TGI,[25],> 100 µM
same,TGI,[26],> 100 µM
same,TGI,[27],> 100 µM
same,TGI,[28],> 100 µM
same,TGI,[29],> 100 µM
same,TGI,[30],> 100 µM
same,TGI,[31],> 100 µM
same,TGI,[32],> 100 µM
same,TGI,[33],> 100 µM
same,TGI,[34],> 100 µM
same,TGI,[35],> 100 µM
same,TGI,[36],> 100 µM
same,TGI,[37],> 100 µM
same,TGI,[38],> 100 µM
same,TGI,[39],> 100 µM
same,TGI,[40],> 100 µM
same,TGI,[41],> 100 µM
same,TGI,[42],> 100 µM
same,TGI,[43],> 100 µM
same,TGI,[44],> 100 µM
same,TGI,[45],> 100 µM
same,TGI,[46],> 100 µM
same,TGI,[47],> 100 µM
same,TGI,[48],> 100 µM
same,TGI,[49],> 100 µM
same,TGI,[50],> 100 µM
same,TGI,[51],> 100 µM
same,TGI,[52],> 100 µM
Cc1[nH]c2c(C)cccc2c1C1Cc2ccccc2N1 (centres undefined),TGI,[53],41 µM
same,TGI,[1],74.1 µM
same,TGI,[54],0.0966 µM
same,TGI,[2],57.1 µM
same,TGI,[3],23.1 µM
same,TGI,[4],> 100 µM
same,TGI,[5],33 µM
same,TGI,[6],36.7 µM
same,TGI,[8],48.3 µM
same,TGI,[9],79.8 µM
same,TGI,[10],35.3 µM
same,TGI,[55],74.6 µM
same,TGI,[11],31 µM
same,TGI,[12],32.4 µM
same,TGI,[13],49.2 µM
same,TGI,[14],66.7 µM
same,TGI,[15],87.7 µM
same,TGI,[17],32.3 µM
same,TGI,[18],39.8 µM
same,TGI,[19],62.2 µM
same,TGI,[20],33.4 µM
same,TGI,[21],31.4 µM
same,TGI,[22],65.7 µM
same,TGI,[23],42.7 µM
same,TGI,[24],45.2 µM
same,TGI,[25],33.7 µM
same,TGI,[26],74.9 µM
same,TGI,[27],54.3 µM
same,TGI,[56],38.4 µM
same,TGI,[28],32.3 µM
same,TGI,[29],29.6 µM
same,TGI,[30],36.7 µM
same,TGI,[31],32.8 µM
same,TGI,[32],30.9 µM
same,TGI,[33],67 µM
same,TGI,[34],> 100 µM
same,TGI,[35],46.9 µM
same,TGI,[37],43 µM
same,TGI,[38],56.4 µM
same,TGI,[39],40.2 µM
same,TGI,[40],41.7 µM
same,TGI,[41],41.2 µM
same,TGI,[42],48.2 µM
same,TGI,[43],35.2 µM
same,TGI,[44],69.8 µM
same,TGI,[45],62.2 µM
same,TGI,[46],35.9 µM
same,TGI,[47],41 µM
same,TGI,[48],41.3 µM
same,TGI,[49],46.1 µM
same,TGI,[50],51.7 µM
same,TGI,[51],36.4 µM
same,TGI,[52],41.4 µM
CCc1cccc(C(C)C)c1NC(=O)C(=O)C1C(=O)NC(=O)NC1=O,TGI,[53],> 100 µM
same,TGI,[1],> 100 µM
same,TGI,[57],> 100 µM
same,TGI,[54],> 100 µM
same,TGI,[2],> 100 µM
same,TGI,[3],> 100 µM
same,TGI,[4],> 100 µM
same,TGI,[5],> 100 µM
same,TGI,[6],> 100 µM
same,TGI,[9],> 100 µM
same,TGI,[10],> 100 µM
same,TGI,[55],> 100 µM
same,TGI,[11],> 100 µM
same,TGI,[12],> 100 µM
same,TGI,[13],> 100 µM
same,TGI,[14],> 100 µM
same,TGI,[15],> 100 µM
same,TGI,[17],> 100 µM
same,TGI,[18],> 100 µM
same,TGI,[19],> 100 µM
same,TGI,[20],> 100 µM
same,TGI,[21],> 100 µM
same,TGI,[22],> 100 µM
same,TGI,[23],> 100 µM
same,TGI,[24],> 100 µM
same,TGI,[25],> 100 µM
same,TGI,[26],> 100 µM
same,TGI,[56],> 100 µM
same,TGI,[28],> 100 µM
same,TGI,[29],> 100 µM
same,TGI,[30],> 100 µM
same,TGI,[31],> 100 µM
same,TGI,[32],> 100 µM
same,TGI,[33],> 100 µM
same,TGI,[34],> 100 µM
same,TGI,[35],> 100 µM
same,TGI,[36],> 100 µM
same,TGI,[37],> 100 µM
same,TGI,[38],> 100 µM
same,TGI,[39],> 100 µM
same,TGI,[58],> 100 µM
same,TGI,[40],> 100 µM
same,TGI,[41],> 100 µM
same,TGI,[42],> 100 µM
same,TGI,[43],> 100 µM
same,TGI,[44],> 100 µM
same,TGI,[45],> 100 µM
same,TGI,[46],> 100 µM
same,TGI,[47],> 100 µM
same,TGI,[48],> 100 µM
same,TGI,[49],> 100 µM
same,TGI,[50],> 100 µM
same,TGI,[51],> 100 µM
same,TGI,[52],> 100 µM
